pIC50: −log10 of the molar value.
biological target: T1, human recombinant GPR65 (Homo sapiens, UniProt Q8IYL9); assay: Human GPR65 cAMP HTRF antagonist assay; type: cell-based; settings: not given
T1 construct: host or cells: 1321N1 human astrocytoma cells (1321N1-hrGPR65)
Outline: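 1321N1 astrocytoma cells stably expressing GPR65 were preincubated with compound for 30 min at room temperature in KRH pH 7.6 with 1 mM IBMX and 200 μM EDTA. They were then stimulated at assay pH 7.2 for 30 min, with controls at pH 7.9. cAMP was read by HTRF (665/620 nm), normalised to controls and fitted by 4-parameter logistic to give IC50.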

T1 sequence (Q8IYL9 whole entry): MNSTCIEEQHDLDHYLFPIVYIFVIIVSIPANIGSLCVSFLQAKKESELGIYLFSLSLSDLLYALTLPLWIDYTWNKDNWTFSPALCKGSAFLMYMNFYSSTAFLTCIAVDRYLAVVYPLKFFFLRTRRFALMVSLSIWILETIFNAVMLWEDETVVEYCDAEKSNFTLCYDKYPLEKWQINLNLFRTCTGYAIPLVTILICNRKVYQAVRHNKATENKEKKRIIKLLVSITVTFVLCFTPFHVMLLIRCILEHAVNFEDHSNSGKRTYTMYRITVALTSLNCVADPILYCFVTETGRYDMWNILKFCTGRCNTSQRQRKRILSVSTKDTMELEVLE

| Compound | pIC50 |
| --- | --- |
| O=C(Nc1ccc(-c2ccccc2)cc1)N1[C@H]2CC[C@@H]1c1c[nH]c(=O)cc1C2 [Compound 191, (6S,9R)-N-([1,1′-Biphenyl]-4-yl)-3-oxo-3,5,6,7,8,9-hexahydro-2H-6,9-epiminocyclohepta[c]pyridine-10-carboxamide] | > 6.30 |
| O=C(Nc1ccc(Cl)c(Cl)c1)N1C2CCC1c1ccnc(Cl)c1C2 (racemic) [Compound 77, (±)-1-Chloro-N-(3,4-dichlorophenyl)-6,7,8,9-tetrahydro-5H-5,8-epiminocyclohepta[c]pyridine-10-carboxamide] | > 6.30 |
| O=C(Nc1ccc(C(F)(F)F)c(Cl)c1)N1C2CCC1c1ncncc1C2 (racemic) [Compound 18, (±)-N-(3-Chloro-4-(trifluoromethyl)phenyl)-6,7,8,9-tetrahydro-5H-6,9-epiminocyclohepta[d]pyrimidine-10-carboxamide] | > 6.30 |
| O=C(Nc1ccc(Br)c(Br)c1)N1C2CCC1c1cncnc1C2 (racemic) [Compound 16, (±)-N-(3,4-Dibromophenyl)-6.7,8,9-tetrahydro-5H-5,8-epiminocyclohepta[d]pyrimidine-10-carboxamide] | > 6.30 |
| O=C(Nc1ccc(OC(F)(F)F)c(Cl)c1)N1[C@H]2CC[C@@H]1c1ccnc(F)c1C2 [Compound 124, (5R,8S)-N-(3-Chloro-4-(trifluoromethoxy)phenyl)-1-fluoro-6,7,8,9-tetrahydro-5H-5,8-epiminocyclohepta[c]pyridine-10-carboxamide] | > 6.30 |
| O=C(Nc1cc(Br)c(C(F)(F)F)cc1F)N1[C@H]2CC[C@@H]1c1c[nH]c(=O)cc1C2 [Compound 144, (6S,9R)-N-(5-Bromo-2-fluoro-4-(trifluoromethyl)phenyl)-3-oxo-3,5,6,7,8,9-hexahydro-2H-6,9-epiminocyclohepta[c]pyridine-10-carboxamide] | > 6.30 |
| Cc1ccc(NC(=O)N2C3CCC2c2ccnc(F)c2C3)cc1C(F)(F)F (racemic) [Compound 160, (±)-1-Fluoro-N-(4-methyl-3-(trifluoromethyl)phenyl)-6,7,8,9-tetrahydro-5H-5,8-epiminocyclohepta[c]pyridine-10-carboxamide] | > 6.30 |
| O=C(Nc1ccc(Br)c(Cl)c1)N1C2CCC1c1cncnc1C2 (racemic) [Compound 7, (±)-N-(4-Bromo-3-chlorophenyl)-6,7,8,9-tetrahydro-5H-5,8-epiminocyclohepta[d]pyrimidine-10-carboxamide] | > 6.30 |
| N#Cc1cc(Cl)c(Cl)cc1NC(=O)N1[C@H]2CC[C@@H]1c1ccnc(F)c1C2 [Compound 98, (5R,8S)-N-(4,5-Dichloro-2-cyanophenyl)-1-fluoro-6,7,8,9-tetrahydro-5H-5,8-epiminocyclohepta[c]pyridine-10-carboxamide] | > 6.30 |
| O=C(Nc1cc(Cl)c(Br)cc1F)N1[C@H]2CC[C@@H]1c1c[nH]c(=O)cc1C2 [Compound 141, (6S,9R)-N-(4-Bromo-5-chloro-2-fluorophenyl)-3-oxo-3,5,6,7,8,9-hexahydro-2H-6.9-epiminocyclohepta[c]pyridine-10-carboxamide] | > 6.30 |
| O=C(Nc1ccc(OC(F)(F)F)c(Cl)c1)N1[C@H]2CC[C@@H]1c1c[nH]c(=O)cc1C2 [Compound 128, (6S,9R)-N-(3-Chloro-4-(trifluoromethoxy)phenyl)-3-oxo-3,5,6,7,8,9-hexahydro-2H-6,9-epiminocyclohepta[c]pyridine-10-carboxamide] | > 6.30 |
| O=C(Nc1ccc(OC(F)F)c(Cl)c1)N1[C@H]2CC[C@@H]1c1ccnc(F)c1C2 [Compound 133, (5R,8S)—N-(3-Chloro-4-(difluoromethoxy)phenyl)-1-fluoro-6,7,8,9-tetrahydro-5H-5,8-epiminocyclohepta[c]pyridine-10-carboxamide] | > 6.30 |
| O=C(Nc1ccc(Cl)c(Cl)c1)N1C2CCC1c1ccc(Cl)cc1C2 (racemic) [Compound 60, (±)-2-Chloro-N-(3,4-dichlorophenyl)-6,7,8,9-tetrahydro-5H-5,8-epiminobenzo[7]annulene-10-carboxamide] | > 6.30 |
| O=C(Nc1cc(Cl)c(Cl)cc1F)N1[C@H]2CC[C@@H]1c1c[nH]c(=O)cc1C2 [Compound 94, (6S,9R)-N-(4,5-Dichloro-2-fluorophenyl)-3-oxo-3,5,6,7,8,9-hexahydro-2H-6,9-epiminocyclohepta[c]pyridine-10-carboxamide] | > 6.30 |
| O=C(Nc1ccc(C(F)(F)F)c(Cl)c1)N1C2CCC1c1ccncc1C2 (racemic) [Compound 35, (±)-N-(3-Chloro-4-(trifluoromethyl)phenyl)-6,7,8,9-tetrahydro-5H-5,8-epiminocyclohepta[c]pyridine-10-carboxamide] | > 6.30 |
| O=C(Nc1ccc(Cl)c(Cl)c1)N1C2CCC1c1ccncc1C2 (racemic) [Compound 36, (±)-N-(3,4-Dichlorophenyl)-6,7,8,9-tetrahydro-5H-5,8-epiminocyclohepta[c]pyridine-10-carboxamide] | > 6.30 |
| O=C(Nc1ccc(C(F)(F)F)c(Cl)c1)N1[C@H]2CC[C@@H]1c1ccnc(F)c1C2 [Compound 85, (5R,8S)-N-(3-Chloro-4-(trifluoromethyl)phenyl)-1-fluoro-6,7,8,9-tetrahydro-5H-5,8-epiminocyclohepta[c]pyridine-10-carboxamide] | > 6.30 |
| O=C(Nc1ccc(Cl)c(Cl)c1)N1C2CCC1c1ccnc(F)c1C2 (racemic) [Compound 109, (±)-N-(3,4-Dichlorophenyl)-1-fluoro-6,7,8,9-tetrahydro-5H-5,8-epiminocyclohepta[c]pyridine-10-carboxamide] | > 6.30 |
| O=C(Nc1cc(C(F)(F)F)ccc1F)N1[C@H]2CC[C@@H]1c1ccnc(F)c1C2 [Compound 119, (5R,8S)-1-Fluoro-N-(2-fluoro-5-(trifluoromethyl)phenyl)-6,7,8,9-tetrahydro-5H-5,8-epiminocyclohepta[c]pyridine-10-carboxamide] | > 6.30 |
| O=C(Nc1ccc(C(F)(F)F)c(Cl)c1)N1C2CCC1c1cnc(=O)[nH]c1C2 (racemic) [Compound 32, (±)-N-(3-Chloro-4-(trifluoromethyl)phenyl)-2-oxo-2,5,6,7,8,9-hexahydro-1H-5,8-epiminocyclohepta[d]pyrimidine-10-carboxamide] | > 6.30 |
| O=C(Nc1ccc(C(F)(F)F)c(Cl)c1)N1C2CCC1c1ccc(F)cc1C2 (racemic) [Compound 75, (±)-N-(3-Chloro-4-(trifluoromethyl)phenyl)-2-fluoro-6,7,8,9-tetrahydro-5H-5,8-epiminobenzo[7]annulene-10-carboxamide] | > 6.30 |

same assay, conditions: 1321N1-hrGPR65 cells, assay pH 7.2, cAMP HTRF; read-out: hGPR65 IC50 (activity class)

| Compound | pIC50 |
| --- | --- |
| N#Cc1ccc(NC(=O)N2C3CCC2c2ccnc(F)c2C3)cc1 (racemic) [Compound 176, (±)-N-(4-Cyanophenyl)-1-fluoro-6,7,8,9-tetrahydro-5H-5,8-epiminocyclohepta[c]pyridine-10-carboxamide] | 5.30 to 6.30 |
| O=C(Nc1cc(C(F)(F)F)cc(C(F)(F)F)c1)N1C2CCC1c1ccnc(F)c1C2 (racemic) [Compound 159, (±)-N-(3,5-Bis(trifluoromethyl)phenyl)-1-fluoro-6,7,8,9-tetrahydro-5H-5,8-epiminocyclohepta[c]pyridine-10-carboxamide] | 5.30 to 6.30 |
| COc1cc2c(cn1)[C@H]1CC[C@@H](C2)N1C(=O)Nc1ccc(Cl)c(Cl)c1 [Compound 86, (6S,9R)-N-(3,4-Dichlorophenyl)-3-methoxy-6,7,8,9-tetrahydro-5H-6,9-epiminocyclohepta[c]pyridine-10-carboxamide] | < 5.30 |
| Nc1nccc2c1C1CCC(C2)N1C(=O)Nc1ccc(Cl)c(Cl)c1 (racemic) [Compound 61, (±)-1-Amino-N-(3,4-dichlorophenyl)-6,7,8,9-tetrahydro-5H-6,9-epiminocyclohepta[c]pyridine-10-carboxamide] | 5.30 to 6.30 |
| COc1cc(NC(=O)N2C3CCC2c2ccnc(F)c2C3)ccc1-c1cnco1 (racemic) [Compound 152, (±)-1-Fluoro-N-(3-methoxy-4-(oxazol-5-yl)phenyl)-6,7,8,9-tetrahydro-5H-5,8-epiminocyclohepta[c]pyridine-10-carboxamide] | 5.30 to 6.30 |
| Nc1cc2c(cn1)C1CCC(C2)N1C(=O)Nc1ccc(Cl)c(Cl)c1 (racemic) [Compound 62, (±)-3-amino-N-(3,4-dichlorophenyl)-6,7,8,9-tetrahydro-5H-6,9-epiminocyclohepta[c]pyridine-10-carboxamide] | < 5.30 |
| O=C(Nc1ccc(Cl)c(Cl)c1)N1[C@@H]2CC[C@H]1c1cnccc1C2 [Compound 112, (6R,9S)-N-(3,4-Dichlorophenyl)-6,7,8,9-tetrahydro-5H-6,9-epiminocyclohepta[c]pyridine-10-carboxamide] | < 5.30 |
| O=C(Nc1ccc(C(F)(F)F)c(Cl)c1)N1C2CCC1c1ccc(Cl)cc1C2 (racemic) [Compound 71, (±)-2-Chloro-N-(3-chloro-4-(trifluoromethyl)phenyl)-6,7,8,9-tetrahydro-5H-5,8-epiminobenzo[7]annulene-10-carboxamide] | 5.30 to 6.30 |
| O=C(Nc1cc(Cl)cc(Cl)c1)N1C2CCC1c1cncnc1C2 (racemic) [Compound 4, (±)-N-(3,5-Dichlorophenyl)-6,7,8,9-tetrahydro-5H-5,8-epiminocyclohepta[d]pyrimidine-10-carboxamide] | 5.30 to 6.30 |
| O=C(Nc1ccc(Cl)c(Cl)c1)N1C2CCC1c1c[n+]([O-])ccc1C2 (racemic) [Compound 59, (±)-10-((3,4-Dichlorophenyl)carbamoyl)-6,7,8,9-tetrahydro-5H-6,9-epiminocyclohepta[c]pyridine 2-oxide] | < 5.30 |
| N#Cc1ccc(NC(=O)N2C3CCC2c2cncnc2C3)cc1Cl (racemic) [Compound 11, (±)-N-(3-chloro-4-cyanophenyl)-6,7,8,9-tetrahydro-5H-5,8-epiminocyclohepta[d]pyrimidine-10-carboxamide] | 5.30 to 6.30 |
